Measurements: patent publication US20240158348A1, “HERBICIDAL CYCLIC AMIDES N-SUBSTITUTED WITH A HALOALKYLSULFONYLANILIDE GROUP” (FMC Corporation, priority 2021, published 2024)

Assays:
Assay type in all cases: in vivo
[1] = test system: goosegrass (Eleusine indica); assay: Test C preemergence, goosegrass; settings: 0 is no effect, 100 is complete control
Description: (§1) Seeds of plant species selected from blackgrass (Alopecurus myosuroides), corn (Zea mays), foxtail, giant (giant foxtail, Setaria faberi), goosegrass (Eleusine indica), kochia (Bassia scoparia), oat, wild (wild oat, Avena fatua), pigweed, palmer (palmer amaranth, Amaranthus palmeri), ragweed (common ragweed, Ambrosia artemisiifolia), ryegrass, Italian (Italian ryegrass, Lolium multiflorum), soybean (Glycine max) and wheat (Triticum aestivum) were planted into a blend of loam soil and sand and treated preemergence with a directed soil spray using test chemicals formulated in a non-phytotoxic solvent mixture which included a surfactant.
(§2) At the same time, plants selected from these crop and weed species and also galium (catchweed bedstraw, Galium aparine) and horseweed (Erigeron canadensis) were planted in pots containing the same blend of loam soil and sand and treated with postemergence applications of test chemicals formulated in the same manner. Plants ranged in height from 2 to 10 cm and were in the one- to two-leaf stage for the postemergence treatment. Treated plants and untreated controls were maintained in a greenhouse for 10 or 12 days, after which time all treated plants were compared to untreated controls and visually evaluated for injury. Plant response ratings, summarized in Table A, are based on a 0 to 100 scale where 0 is no effect and 100 is complete control. A dash (-) response means no test result.

soybean (Glycine max) [2] = assay: Test C postemergence, soybean; settings: visual injury, 0 to 100 scale (0 no effect, 100 complete control)
Description: as §1, §2

[3] = test system: pigweed, palmer (palmer amaranth, Amaranthus palmeri); assay: Test C preemergence, palmer amaranth; settings: 0 is no effect, 100 is complete control
Description: as §1, §2

[4] = test system: wheat (Triticum aestivum); assay: Test C postemergence, wheat; settings: visual injury, 0 to 100 scale (0 no effect, 100 complete control)
Description: as §1, §2

[5] = test system: barnyardgrass (Echinochloa crusgalli); assay: Test D flooded paddy test, barnyardgrass; set-up: key: 0 = no effect, 100 = complete control; settings: 250 g ai/ha, Flood; applied to paddy water at 2-leaf stage; visual rating after 13 days; scale 0 (no effect) to 100 (complete control)
Description: (§3) Plant species in the flooded paddy test selected from barnyardgrass (Echinochloa crusgalli), ducksalad (Heteranthera limosa), rice (Oryza sativa), and sedge, umbrella (small-flower umbrella sedge, Cyperus difformis) were grown to the 2-leaf stage for testing. At time of treatment, test pots were flooded to 3 cm above the soil surface, treated by application of test compounds directly to the paddy water, and then maintained at that water depth for the duration of the test. Treated plants and controls were maintained in a greenhouse for 13 days, after which time all species were compared to controls and visually evaluated. Plant response ratings, summarized in Table B, are based on a scale of 0 to 100 where 0 is no effect and 100 is complete control. A dash (-) response means no test result.

soybean (Glycine max) [6] = assay: Test C preemergence, soybean; settings: 0 is no effect, 100 is complete control
Description: as §1, §2

[7] = test system: galium (catchweed bedstraw, Galium aparine); assay: Test C postemergence, galium; settings: visual injury, 0 to 100 scale (0 no effect, 100 complete control)
Description: as §1, §2

[8] = test system: foxtail, giant (giant foxtail, Setaria faberi); assay: Test C postemergence, giant foxtail; settings: visual injury, 0 to 100 scale (0 no effect, 100 complete control)
Description: as §1, §2

[9] = test system: ragweed (common ragweed, Ambrosia artemisiifolia); assay: Test C postemergence, ragweed; settings: visual injury, 0 to 100 scale (0 no effect, 100 complete control)
Description: as §1, §2

kochia (Bassia scoparia) [10] = assay: Test C postemergence, kochia; settings: visual injury, 0 to 100 scale (0 no effect, 100 complete control)
Description: as §1, §2

[11] = test system: ryegrass, Italian (Italian ryegrass, Lolium multiflorum); assay: Test C postemergence, Italian ryegrass; settings: visual injury, 0 to 100 scale (0 no effect, 100 complete control)
Description: as §1, §2

[12] = test system: oat, wild (wild oat, Avena fatua); assay: Test C preemergence, wild oat; settings: 0 is no effect, 100 is complete control
Description: as §1, §2

rice (Oryza sativa) = assay: Test D flooded paddy test, rice; set-up: key: 0 = no effect, 100 = complete control; settings: 250 g ai/ha, Flood; applied to paddy water at 2-leaf stage; visual rating after 13 days; scale 0 (no effect) to 100 (complete control)
Description: as §3

[13] = test system: blackgrass (Alopecurus myosuroides); assay: Test C preemergence, blackgrass; settings: 0 is no effect, 100 is complete control
Description: as §1, §2

[14] = test system: goosegrass (Eleusine indica); assay: Test C postemergence, goosegrass; settings: visual injury, 0 to 100 scale (0 no effect, 100 complete control)
Description: as §1, §2

[15] = test system: pigweed, palmer (palmer amaranth, Amaranthus palmeri); assay: Test C postemergence, palmer amaranth; settings: visual injury, 0 to 100 scale (0 no effect, 100 complete control)
Description: as §1, §2

corn (Zea mays) [16] = assay: Test C preemergence, corn; settings: 0 is no effect, 100 is complete control
Description: as §1, §2

[17] = test system: ducksalad (Heteranthera limosa); assay: Test D flooded paddy test, ducksalad; set-up: key: 0 = no effect, 100 = complete control; settings: 250 g ai/ha, Flood; applied to paddy water at 2-leaf stage; visual rating after 13 days; scale 0 (no effect) to 100 (complete control)
Description: as §3

[18] = test system: ryegrass, Italian (Italian ryegrass, Lolium multiflorum); assay: Test C preemergence, Italian ryegrass; settings: 0 is no effect, 100 is complete control
Description: as §1, §2

kochia (Bassia scoparia) [19] = assay: Test C preemergence, kochia; settings: 0 is no effect, 100 is complete control
Description: as §1, §2

[20] = test system: foxtail, giant (giant foxtail, Setaria faberi); assay: Test C preemergence, giant foxtail; settings: 0 is no effect, 100 is complete control
Description: as §1, §2

[21] = test system: wheat (Triticum aestivum); assay: Test C preemergence, wheat; settings: 0 is no effect, 100 is complete control
Description: as §1, §2

[22] = test system: horseweed (Erigeron canadensis); assay: Test C postemergence, horseweed; settings: visual injury, 0 to 100 scale (0 no effect, 100 complete control)
Description: as §1, §2

[23] = test system: sedge, umbrella (small-flower umbrella sedge, Cyperus difformis); assay: Test D flooded paddy test, umbrella sedge; set-up: key: 0 = no effect, 100 = complete control; settings: 250 g ai/ha, Flood; applied to paddy water at 2-leaf stage; visual rating after 13 days; scale 0 (no effect) to 100 (complete control)
Description: as §3

[24] = test system: ragweed (common ragweed, Ambrosia artemisiifolia); assay: Test C preemergence, ragweed; settings: 0 is no effect, 100 is complete control
Description: as §1, §2

[25] = test system: blackgrass (Alopecurus myosuroides); assay: Test C postemergence, blackgrass; settings: visual injury, 0 to 100 scale (0 no effect, 100 complete control)
Description: as §1, §2

corn (Zea mays) [26] = assay: Test C postemergence, corn; settings: visual injury, 0 to 100 scale (0 no effect, 100 complete control)
Description: as §1, §2

[27] = test system: oat, wild (wild oat, Avena fatua); assay: Test C postemergence, wild oat; settings: visual injury, 0 to 100 scale (0 no effect, 100 complete control)
Description: as §1, §2

Compound: Cc1cc(C)c(N2CCC(OCC3CCC3)C2=O)cc1NS(=O)(=O)C(F)(F)F (stereo not shown) [Compound 43]
- Plant response rating (0 to 100 scale), Goosegrass ([1]; 31 g ai/ha Preemergence): 60
- Plant response rating (0 to 100 scale), Goosegrass ([1]; 125 g ai/ha Preemergence): 100
- Soybean plant response rating (soybean (Glycine max) [2]; 31 g ai/ha Postemergence): 80
- Soybean plant response rating (soybean (Glycine max) [2]; 125 g ai/ha Postemergence): 90
- Plant response rating (0 to 100 scale), Pigweed, Palmer ([3]; 31 g ai/ha Preemergence): 70
- Plant response rating (0 to 100 scale), Pigweed, Palmer ([3]; 125 g ai/ha Preemergence): 100
- Wheat plant response rating ([4]; 31 g ai/ha Postemergence): 30
- Wheat plant response rating ([4]; 125 g ai/ha Postemergence): 70
- Plant response rating, Barnyardgrass [5]: 25
- Plant response rating (0 to 100 scale), Soybean (soybean (Glycine max) [6]; 31 g ai/ha Preemergence): 10
- Plant response rating (0 to 100 scale), Soybean (soybean (Glycine max) [6]; 125 g ai/ha Preemergence): 90
- Galium plant response rating ([7]; 31 g ai/ha Postemergence): 70
- Galium plant response rating ([7]; 125 g ai/ha Postemergence): 90
- Foxtail, Giant plant response rating ([8]; 31 g ai/ha Postemergence): 10
- Foxtail, Giant plant response rating ([8]; 125 g ai/ha Postemergence): 90
- Ragweed plant response rating ([9]; 31 g ai/ha Postemergence): 50
- Ragweed plant response rating ([9]; 125 g ai/ha Postemergence): 90
- Kochia plant response rating (kochia (Bassia scoparia) [10]; 31 g ai/ha Postemergence): 20
- Kochia plant response rating (kochia (Bassia scoparia) [10]; 125 g ai/ha Postemergence): 60
- Ryegrass, Italian plant response rating ([11]; 31 g ai/ha Postemergence): 30
- Ryegrass, Italian plant response rating ([11]; 125 g ai/ha Postemergence): 70
- Plant response rating (0 to 100 scale), Oat, Wild ([12]; 31 g ai/ha Preemergence): 0
- Plant response rating (0 to 100 scale), Oat, Wild ([12]; 125 g ai/ha Preemergence): 50
- Plant response rating, Rice (rice (Oryza sativa)): 30
- Plant response rating (0 to 100 scale), Blackgrass ([13]; 31 g ai/ha Preemergence): 40
- Plant response rating (0 to 100 scale), Blackgrass ([13]; 125 g ai/ha Preemergence): 50
- Goosegrass plant response rating ([14]; 31 g ai/ha Postemergence): 20
- Goosegrass plant response rating ([14]; 125 g ai/ha Postemergence): 90
- Pigweed, Palmer plant response rating ([15]; 31 g ai/ha Postemergence): 40
- Pigweed, Palmer plant response rating ([15]; 125 g ai/ha Postemergence): 90
- Plant response rating (0 to 100 scale), Corn (corn (Zea mays) [16]; 31 g ai/ha Preemergence): 40
- Plant response rating (0 to 100 scale), Corn (corn (Zea mays) [16]; 125 g ai/ha Preemergence): 100
- Plant response rating, Ducksalad [17]: 95
- Plant response rating (0 to 100 scale), Ryegrass, Italian ([18]; 31 g ai/ha Preemergence): 80
- Plant response rating (0 to 100 scale), Ryegrass, Italian ([18]; 125 g ai/ha Preemergence): 100
- Plant response rating (0 to 100 scale), Kochia (kochia (Bassia scoparia) [19]; 31 g ai/ha Preemergence): 60
- Plant response rating (0 to 100 scale), Kochia (kochia (Bassia scoparia) [19]; 125 g ai/ha Preemergence): 80
- Plant response rating (0 to 100 scale), Foxtail, Giant ([20]; 31 g ai/ha Preemergence): 30
- Plant response rating (0 to 100 scale), Foxtail, Giant ([20]; 125 g ai/ha Preemergence): 100
- Plant response rating (0 to 100 scale), Wheat ([21]; 31 g ai/ha Preemergence): 20
- Plant response rating (0 to 100 scale), Wheat ([21]; 125 g ai/ha Preemergence): 100
- Horseweed plant response rating ([22]; 31 g ai/ha Postemergence): 30
- Horseweed plant response rating ([22]; 125 g ai/ha Postemergence): 60
- Plant response rating, Sedge, Umbrella [23]: 95
- Plant response rating (0 to 100 scale), Ragweed ([24]; 31 g ai/ha Preemergence): 10
- Plant response rating (0 to 100 scale), Ragweed ([24]; 125 g ai/ha Preemergence): 60
- Blackgrass plant response rating ([25]; 31 g ai/ha Postemergence): 0
- Blackgrass plant response rating ([25]; 125 g ai/ha Postemergence): 50
- Corn plant response rating (corn (Zea mays) [26]; 31 g ai/ha Postemergence): 40
- Corn plant response rating (corn (Zea mays) [26]; 125 g ai/ha Postemergence): 90
- Oat, Wild plant response rating ([27]; 31 g ai/ha Postemergence): 10
- Oat, Wild plant response rating ([27]; 125 g ai/ha Postemergence): 20
